Molecules are shown by their SMILES.

As a reminder, the IC50 is the concentration needed to halve the response being measured. A higher IC50 goes with lower potency.

The target of this assay is Sulfonylurea receptors; K-ATP channels (Homo sapiens, UniProt O60706+Q09428+Q14654+Q15842). Briefly: Compound was measured in vitro for potassium channel opening (PCO) activity. Format: protein-complex assay, Cavia porcellus.
The compound `CN(C)S(=O)(=O)c1ccc(NC(=O)C(C)(O)C(F)(F)F)cc1` (racemic) gave an IC50 of 0.48 µM. Compound `CC(O)(C(=O)Nc1ccc(S(=O)(=O)N2CCCC2)cc1)C(F)(F)F` (racemic) had a half-maximal inhibitory concentration (IC50) of 0.88 µM.

Take `CCCN(CCC)S(=O)(=O)c1ccc(NC(=O)C(C)(O)C(F)(F)F)cc1` (racemic): the IC50 is 6.44 µM. With `Cn1nnnc1-c1ccc(NC(=O)C(C)(O)C(F)(F)F)cc1` (racemic), the IC50 was determined as 30.9 µM. As for `CC(O)(C(=O)Nc1ccc(S(=O)(=O)N2CCSCC2)cc1)C(F)(F)F` (racemic), the figure is 4.58 µM; as for `CC(O)(C(=O)Nc1ccc(S(=O)(=O)N2CCOCC2)cc1)C(F)(F)F` (racemic), 5.85 µM; as for `CC(O)(C(=O)Nc1ccc([C@H](O)c2ccccc2)cc1)C(F)(F)F` (mixture of isomers), above 30 µM. `CC(O)(C(=O)Nc1ccc(S(=O)(=O)N(c2ccccc2)c2ccccc2)cc1)C(F)(F)F` (racemic) came in with a half-maximal inhibitory concentration (IC50) above 30 µM. For `CCN(CC)C(=O)c1ccc(NC(=O)C(C)(O)C(F)(F)F)cc1` (racemic), the concentration for half-maximal inhibition (IC50) is above 30 µM.

For `CC(O)(C(=O)Nc1ccc([C@@H](O)c2ccccc2)cc1)C(F)(F)F` (mixture of isomers), the IC50 is above 30 µM.

The compound `CCN(CC)S(=O)(=O)c1ccc(NC(=O)C(C)(O)C(F)(F)F)cc1` (racemic) yielded a half-inhibitory concentration (IC50) of 0.81 µM. In the case of `CC(O)(C(=O)Nc1ccc(-c2nn[nH]n2)cc1)C(F)(F)F` (racemic), the concentration for half-maximal inhibition (IC50) is above 30 µM.

`CC(C)CN(CC(C)C)S(=O)(=O)c1ccc(NC(=O)C(C)(O)C(F)(F)F)cc1` (racemic) came in with a 50% inhibitory concentration (IC50) above 30 µM. `CC(O)(C(=O)Nc1ccc(S(=O)(=O)N2CCNCC2)cc1)C(F)(F)F` (racemic) returned a concentration for half-maximal inhibition (IC50) above 30 µM.

For `CO/N=C(/c1ccccc1)c1ccc(NC(=O)C(C)(O)C(F)(F)F)cc1` (racemic), the IC50 is above 30 µM. As for `CC(O)(C(=O)Nc1ccc(S(=O)(=O)N2CCCCC2)cc1)C(F)(F)F` (racemic), 9.25 µM corresponded to half-maximal inhibition (IC50). As for `CC(O)(C(=O)Nc1ccc(Sc2ccccc2)cc1)C(F)(F)F` (racemic), the figure is above 30 µM. `CC(O)(C(=O)Nc1ccc(/C(=N\O)c2ccccc2)cc1)C(F)(F)F` (mixture of isomers) yielded a half-maximal inhibitory concentration (IC50) above 30 µM.

Take `CCC(C)N(C(C)CC)S(=O)(=O)c1ccc(NC(=O)C(C)(O)C(F)(F)F)cc1` (racemic): the IC50 was above 30 µM. On to `CC(O)(C(=O)Nc1ccc(S(N)(=O)=O)cc1)C(F)(F)F` (racemic), for which the half-maximal inhibitory concentration (IC50) turned out to be 12.8 µM. For the compound `CC(O)(C(=O)Nc1ccc(S(=O)(=O)Nc2ccccc2)cc1)C(F)(F)F` (racemic), the IC50 is above 30 µM.
